# Laboratory results from patent publication US7939558B2, “Compounds having activity in increasing ion transport by mutant-CFTR and uses thereof” (The Regents of the University of California, priority 2004, dated 2011).
# Biological target: ΔF508-CFTR (Homo sapiens, UniProt P13569, DEL508-508)
# Assay: Fluorescence (YFP-H148Q/I152L) I− influx assay of ΔF508-CFTR potentiator activity in FRT cells
# Type: cell-based
# Set-up: expressed in transfected cells
# Details: phenylglycine containing compounds, 27° C. 24 h, forskolin 20 μM, read-out: Ka
# Experimental: Clonal populations of Fischer rat thyroid (FRT) epithelial cells stably co-expressing human ΔF508-CFTR and the high-sensitivity halide-sensing green fluorescent analog YFP-H148Q/I152L (Galietta et al., A.S. (2001) FEBS Lett. 499, 220-224) were generated by liposome transfection and limiting dilution with Zeocin/G418 selection. More than 100 clones were evaluated for high fluorescence and ΔF508-CFTR plasma membrane targeting after growth at 27° C. for 24 hours. For screening, cells were cultured on plastic in Coon's modified F12 medium supplemented with 10% fetal bovine serum, 2 mM L-glutamine, 100 U/ml penicillin, and 100 μg/ml streptomycin, and plated on black 96-well microplates (Corning-Costar 3904) at 30,000 cells/well. For short-circuit measurements cells were cultured on Snapwell permeable supports (Corning-Costar) at 500,000 cells/insert. Human nasal epithelium cells from CF patients were cultured on Snapwell inserts and allowed to differentiate in a hormone-supplemented medium (Galietta et al., Am. J. Physiol., […]). Some measurements were done using stably transfected FRT cells expressing YFP-H148Q and wildtype- or G551D-CFTR (Galietta et al., (2001) J. Biol. Chem. 276, 19723-19728). Patch clamp experiments were done on ΔF508-CFTR-expressing FRT cells plated in 35-mm Petri dishes.
# Screening was carried out using a Beckman integrated system containing a 3-meter robotic arm, CO2 incubator containing microplate carousel, plate-washer, liquid handling workstation, bar code reader, delidding station, plate sealer, and two FluoStar fluorescence plate readers (Galaxy, BMG Lab Technologies), each equipped with dual syringe pumps and HQ500/20X ([…]) excitation and HQ535/30M (535±15 nm) emission filters (Chroma). Software was written in VBA (Visual Basic for Applications) to compute baseline-subtracted fluorescence slopes (giving halide influx rates).
# For assay of ΔF508-CFTR potentiator activity the incubator (27° C., 90% humidity, 5% CO2/95% air) was loaded with forty-to-sixty 96-well plates containing FRT cells. After an 18-24 hour incubation plates were washed 3 times with PBS (300 μl/wash) leaving 50 μl PBS. 10 μl of PBS containing 120 μM forskolin was added, and after 5 min test compounds (0.6 μl of 0.25 mM DMSO solution) were added to each well to give 2.5 μM final compound concentrations. After 15 min, 96-well plates were transferred to a plate reader for fluorescence assay. Each well was assayed individually for I^− influx by recording fluorescence continuously (200 ms per point) for 2 seconds (baseline) and then for 12 seconds after rapid (<1 s) addition of 160 μL of isosmolar PBS in which 137 mM Cl^− was replaced by I^−. I^− influx rates were computed from initial fluorescence versus time-curve slopes (determined by 3rd order polynomial regression) after normalization for total fluorescence (background subtracted initial fluorescence). All compound plates contained negative control (DMSO vehicle alone) and positive controls (genistein, 5 μM and 50 μM). Assay analysis indicated a Z′-factor of >0.7 (Zhang et al., J. Biomol. Screen 4:67-73 (1999)).
# The high-throughput screen was designed to identify compounds that activated ΔF508-CFTR when expressed at the cell plasma membrane. FRT epithelial cells co-expressing ΔF508-CFTR and a high sensitivity yellow fluorescent protein-based halide indicator were incubated at 27° C. for 24 h to permit ΔF508-CFTR plasma membrane targeting (FIG. 1, panel A). After washing, forskolin (20 μM) and test compounds (2.5 μM) were added to individual wells of 96-well plates. The I^− influx assay was carried out ˜15 min later by measurement of the time course of decreasing YFP fluorescence after creation of an inwardly-directed I^− gradient. A high concentration of forskolin was used to identify ΔF508-CFTR potentiators that may interact directly with ΔF508-CFTR rather than alter cAMP concentration. […]
# ΔF508-CFTR, sequence (P13569 with tags, fused parts or gaps DEL508-508): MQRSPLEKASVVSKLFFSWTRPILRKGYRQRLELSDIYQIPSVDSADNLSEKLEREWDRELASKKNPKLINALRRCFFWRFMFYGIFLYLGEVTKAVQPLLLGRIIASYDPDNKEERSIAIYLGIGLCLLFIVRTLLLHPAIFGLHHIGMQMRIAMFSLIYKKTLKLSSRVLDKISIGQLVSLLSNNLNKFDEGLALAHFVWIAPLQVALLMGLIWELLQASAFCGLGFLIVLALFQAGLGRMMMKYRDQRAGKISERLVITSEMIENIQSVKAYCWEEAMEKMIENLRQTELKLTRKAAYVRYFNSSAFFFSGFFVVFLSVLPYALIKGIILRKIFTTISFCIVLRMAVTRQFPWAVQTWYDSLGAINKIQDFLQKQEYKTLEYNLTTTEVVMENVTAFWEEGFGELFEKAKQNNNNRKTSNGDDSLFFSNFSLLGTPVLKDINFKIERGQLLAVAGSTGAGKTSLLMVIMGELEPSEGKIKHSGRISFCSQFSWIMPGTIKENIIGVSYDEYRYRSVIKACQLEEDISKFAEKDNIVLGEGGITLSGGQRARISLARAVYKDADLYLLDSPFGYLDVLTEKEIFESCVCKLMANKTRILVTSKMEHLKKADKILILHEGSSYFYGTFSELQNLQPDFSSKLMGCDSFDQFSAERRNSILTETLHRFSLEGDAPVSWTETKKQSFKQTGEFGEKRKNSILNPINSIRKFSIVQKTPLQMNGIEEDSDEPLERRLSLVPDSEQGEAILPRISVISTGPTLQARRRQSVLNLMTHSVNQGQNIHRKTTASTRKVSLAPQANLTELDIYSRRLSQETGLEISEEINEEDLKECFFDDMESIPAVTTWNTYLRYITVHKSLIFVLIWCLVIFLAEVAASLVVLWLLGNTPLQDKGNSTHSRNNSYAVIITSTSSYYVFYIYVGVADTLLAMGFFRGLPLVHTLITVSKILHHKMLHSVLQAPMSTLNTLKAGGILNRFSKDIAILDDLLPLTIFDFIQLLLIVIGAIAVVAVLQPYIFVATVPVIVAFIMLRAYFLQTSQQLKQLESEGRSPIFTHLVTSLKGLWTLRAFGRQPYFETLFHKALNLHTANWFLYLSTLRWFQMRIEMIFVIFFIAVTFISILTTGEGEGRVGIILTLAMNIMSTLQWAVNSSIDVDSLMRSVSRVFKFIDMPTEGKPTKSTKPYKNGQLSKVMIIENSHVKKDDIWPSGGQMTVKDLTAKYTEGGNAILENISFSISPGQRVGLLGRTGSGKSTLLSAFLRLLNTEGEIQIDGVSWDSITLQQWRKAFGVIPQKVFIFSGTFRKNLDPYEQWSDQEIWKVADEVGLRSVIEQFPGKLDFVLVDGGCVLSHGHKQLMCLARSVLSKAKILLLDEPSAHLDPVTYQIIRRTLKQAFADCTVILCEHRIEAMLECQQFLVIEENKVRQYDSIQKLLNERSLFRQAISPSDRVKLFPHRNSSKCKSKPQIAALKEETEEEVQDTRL
row,Compound,EC50 [nM]
1,"CC(=O)NCC(=O)N(C)C(C(=O)Nc1ccc2c(c1)OCCO2)c1ccccc1 (stereo not drawn) [Compound P-2, 2-[(2-Acetylamino-acetyl)-methyl-amino]-N-(2,3-dihydro-benzo[1,4]dioxin-6-yl)-2-phenyl-acetamide]",300
2,"COc1ccc(C(C(=O)Nc2ccc(C(C)C)cc2)N(C)C(=O)Cc2c[nH]c3ccccc23)cc1 (stereo not drawn) [Compound P-3, 2-[(2-1H-Indol-3-yl-acetyl)-methyl-amino]-N-(4-isopropyl-phenyl)-2-(4-methoxy-phenyl)-acetamide]",340
3,"COc1ccc(NC(=O)C(c2ccccc2)N(C)C(=O)Cc2c[nH]c3ccccc23)cc1 (stereo not drawn) [Compound P-5, 2-[(2-1H-Indol-3-yl-acetyl)-methyl-amino]-N-(4-methoxy-phenyl)-2-phenyl-acetamide]",700
4,"CC(C)c1ccc(NC(=O)C(NC(=O)Cc2c[nH]c3ccccc23)c2ccccc2)cc1 (stereo not drawn) [Compound P-6, 2-(2-1H-Indol-3-yl-acetylamino)-N-(4-isopropyl-phenyl)-2-phenyl-acetamide]",880
5,"Cc1ccc(C(C(=O)Nc2ccc3c(c2)OCO3)N(C)C(=O)Cc2c[nH]c3ccccc23)cc1 (stereo not drawn) [Compound P-7, N-Benzo[1,3]dioxol-5-yl-2-[(2-1H-indol-3-yl-acetyl)-methyl-amino]-2-p-tolyl-acetamide]",1330
6,"COc1ccc(NC(=O)C(c2ccc(OC)cc2)N(C)C(=O)Cc2c[nH]c3ccccc23)cc1 (stereo not drawn) [Compound P-8, 2-[(2-1H-Indol-3-yl-acetyl)-methyl-amino]-2,N-bis-(4-methoxy-phenyl)-acetamide]",2130
7,"Cc1ccc(C(NC(=O)Cc2cc3ccccc3[nH]2)C(=O)Nc2ccc3c(c2)OCCO3)cc1 (stereo not drawn) [Compound P-9, N-(2,3-Dihydro-benzo[1,4]dioxin-6-yl)-2-(2-1H-indol-2-yl-acetylamino)-2-p-tolyl-acetamide]",2330
8,"COc1ccc(C(C(=O)Nc2ccc3c(c2)OCCO3)N(C)C(=O)Cc2c[nH]c3ccccc23)cc1 (stereo not drawn) [Compound P-10, N-(2,3-Dihydro-benzo[1,4]dioxin-6-yl)-2-[(2-1H-indol-3-yl-acetyl)-methyl-amino]-2-(4-methoxy-phenyl)-acetamide]",2710

# Same assay, conditions: sulfonamide containing compounds, 27° C. 24 h, forskolin 20 μM, read-out: Ka
row,Compound,EC50 [nM]
1,CCN(c1ccccc1)S(=O)(=O)c1ccc2[nH]cc(C(=O)NC3CCCCCC3)c(=O)c2c1 [Compound S-2],20
2,CCN(c1ccccc1)S(=O)(=O)c1ccc2[nH]cc(C(=O)NC3CCCCC3)c(=O)c2c1 [Compound S-4],30
3,C=CCN(c1ccccc1)S(=O)(=O)c1ccc2[nH]cc(C(=O)NCCCC)c(=O)c2c1 [Compound S-6],110
4,C=CCN(c1ccccc1)S(=O)(=O)c1ccc2[nH]cc(C(=O)NC3CCCCCC3)c(=O)c2c1 [Compound S-7],120
5,Cc1ccc(C)c(N(C)S(=O)(=O)c2ccc3[nH]cc(C(=O)NCc4ccccn4)c(=O)c3c2)c1 [Compound S-8],130
6,"CCN(c1ccccc1)S(=O)(=O)c1ccc2[nH]cc(C(=O)NCCCOC)c(=O)c2c1 [Compound S-9, 6-(Ethyl-phenyl-sulfamoyl)-4-oxo-1,4-dihydro-quinoline-3-carboxylic acid (3-methoxy-propyl)-amide]",140
7,C=CCN(c1ccccc1)S(=O)(=O)c1ccc2[nH]cc(C(=O)NCc3ccccn3)c(=O)c2c1 [Compound S-11],160
8,C=CCN(c1ccccc1)S(=O)(=O)c1ccc2[nH]cc(C(=O)NCCCCCC)c(=O)c2c1 [Compound S-12],190
9,CCCCNC(=O)c1c[nH]c2ccc(S(=O)(=O)N(C)c3ccccc3C)cc2c1=O [Compound S-13],200
10,CCOc1ccccc1N(C)S(=O)(=O)c1ccc2[nH]cc(C(=O)NCC3CCCO3)c(=O)c2c1 (stereo not drawn) [Compound S-14],200
11,CCCCCNC(=O)c1c[nH]c2ccc(S(=O)(=O)N(C)c3cccc(C)c3)cc2c1=O [Compound S-15],220
12,CCN(c1ccccc1)S(=O)(=O)c1ccc2[nH]cc(C(=O)NCCC3=CCCCC3)c(=O)c2c1 [Compound S-16],240
13,CCN(c1ccccc1)S(=O)(=O)c1ccc2[nH]cc(C(=O)NCC3CCCO3)c(=O)c2c1 (stereo not drawn) [Compound S-17],240
